Assays:
Conditions in all cases: Compound concentration 1000.0 nM
[1] = test system: Receptor-type tyrosine-protein kinase FLT3 (Homo sapiens), P36888 [UNDEFINED MUTATION]
[2] = test system: Tyrosine-protein kinase ABL1 (Homo sapiens), P00519 [F317L]
[3] = biological target: Calcium/calmodulin-dependent protein kinase type II subunit gamma (Homo sapiens) (UniProt Q13555)
[4] = biological target: Inhibitor of nuclear factor kappa-B kinase subunit alpha (Homo sapiens) (UniProt O15111)
[5] = biological target: Bone morphogenetic protein receptor type-2 (Homo sapiens) (UniProt Q13873)
[6] = biological target: Receptor-interacting serine/threonine-protein kinase 2 (Homo sapiens) (UniProt O43353)
[7] = biological target: Cyclin-dependent kinase 11A (Homo sapiens) (UniProt Q9UQ88)
[8] = test system: Phosphatidylinositol 4,5-bisphosphate 3-kinase catalytic subunit alpha isoform (Homo sapiens), P42336 [M1043I]
[9] = biological target: Serine/threonine-protein kinase N2 (Homo sapiens) (UniProt Q16513)
[10] = biological target: Dual specificity mitogen-activated protein kinase kinase 4 (Homo sapiens) (UniProt P45985)
[11] = biological target: Tyrosine-protein kinase Fer (Homo sapiens) (UniProt P16591)
[12] = biological target: Cyclin-dependent kinase-like 3 (Homo sapiens) (UniProt Q8IVW4)
[13] = biological target: Beta-adrenergic receptor kinase 1 (Homo sapiens) (UniProt P25098)
[14] = biological target: Bone morphogenetic protein receptor type-1B (Homo sapiens) (UniProt O00238)
[15] = biological target: Myosin light chain kinase 2, skeletal/cardiac muscle (Homo sapiens) (UniProt Q9H1R3)
[16] = biological target: Protein-tyrosine kinase 6 (Homo sapiens) (UniProt Q13882)
[17] = test system: Epidermal growth factor receptor (Homo sapiens), P00533 [UNDEFINED MUTATION]
[18] = biological target: Serine/threonine-protein kinase pim-2 (Homo sapiens) (UniProt Q9P1W9)
[19] = biological target: Serine/threonine-protein kinase 17B (Homo sapiens) (UniProt O94768)
[20] = biological target: Serine/threonine-protein kinase TAO2 (Homo sapiens) (UniProt Q9UL54)
[21] = biological target: Megakaryocyte-associated tyrosine-protein kinase (Homo sapiens) (UniProt P42679)
[22] = biological target: Calcium/calmodulin-dependent protein kinase kinase 2 (Homo sapiens) (UniProt Q96RR4)
[23] = biological target: Serine/threonine-protein kinase 38-like (Homo sapiens) (UniProt Q9Y2H1)
[24] = biological target: Tyrosine-protein kinase HCK (Homo sapiens) (UniProt P08631)
[25] = biological target: Ribosomal protein S6 kinase beta-1 (Homo sapiens) (UniProt P23443)
[26] = biological target: Serine/threonine-protein kinase Nek6 (Homo sapiens) (UniProt Q9HC98)
[27] = biological target: Cyclin-dependent kinase 14 (Homo sapiens) (UniProt O94921)
[28] = biological target: Death-associated protein kinase 2 (Homo sapiens) (UniProt Q9UIK4)
[29] = biological target: Serine/threonine-protein kinase BRSK1 (Homo sapiens) (UniProt Q8TDC3)
[30] = test system: ALK tyrosine kinase receptor (Homo sapiens), Q9UM73 [L1196M]
[31] = biological target: Epithelial discoidin domain-containing receptor 1 (Homo sapiens) (UniProt Q08345)
[32] = biological target: Mitogen-activated protein kinase kinase kinase 20 (Homo sapiens) (UniProt Q9NYL2)
[33] = biological target: Cyclin-dependent kinase 8 (Homo sapiens) (UniProt P49336)
[34] = biological target: Leucine-rich repeat serine/threonine-protein kinase 2 (Homo sapiens) (UniProt Q5S007)
[35] = biological target: Protein kinase C epsilon type (Homo sapiens) (UniProt Q02156)
[36] = biological target: Ribosomal protein S6 kinase alpha-1 (Homo sapiens) (UniProt Q15418)
[37] = biological target: Serine/threonine-protein kinase MRCK alpha (Homo sapiens) (UniProt Q5VT25)
[38] = biological target: Mast/stem cell growth factor receptor Kit (Homo sapiens) (UniProt P10721)
[39] = biological target: SRSF protein kinase 2 (Homo sapiens) (UniProt P78362)
[40] = biological target: Serine/threonine-protein kinase 33 (Homo sapiens) (UniProt Q9BYT3)
[41] = biological target: Ephrin type-A receptor 2 (Homo sapiens) (UniProt P29317)
[42] = biological target: Casein kinase I isoform gamma-1 (Homo sapiens) (UniProt Q9HCP0)
[43] = biological target: Serine/threonine-protein kinase PknB (Mycobacterium tuberculosis) (UniProt P9WI81)
[44] = biological target: Rhodopsin kinase GRK1 (Homo sapiens) (UniProt Q15835)
[45] = biological target: Tyrosine-protein kinase Lyn (Homo sapiens) (UniProt P07948)

Sequence of Cyclin-dependent kinase-like 3 (Homo sapiens) (Q8IVW4 whole entry, looked up): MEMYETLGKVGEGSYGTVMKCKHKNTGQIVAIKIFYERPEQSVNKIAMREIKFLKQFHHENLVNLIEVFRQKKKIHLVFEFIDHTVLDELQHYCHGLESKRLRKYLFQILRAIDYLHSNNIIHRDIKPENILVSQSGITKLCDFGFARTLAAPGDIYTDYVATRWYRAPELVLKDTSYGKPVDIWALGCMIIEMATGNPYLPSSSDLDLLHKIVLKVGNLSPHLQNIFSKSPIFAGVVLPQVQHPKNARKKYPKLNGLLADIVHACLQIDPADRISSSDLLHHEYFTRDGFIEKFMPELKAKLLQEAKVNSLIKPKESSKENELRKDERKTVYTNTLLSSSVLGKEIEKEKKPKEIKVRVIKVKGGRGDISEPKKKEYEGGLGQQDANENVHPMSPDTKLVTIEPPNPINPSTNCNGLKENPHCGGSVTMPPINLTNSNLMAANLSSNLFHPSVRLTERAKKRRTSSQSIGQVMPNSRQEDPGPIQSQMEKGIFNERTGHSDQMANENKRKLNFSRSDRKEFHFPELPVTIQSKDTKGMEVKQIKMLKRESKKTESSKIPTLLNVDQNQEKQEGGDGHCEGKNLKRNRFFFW
Sequence of Serine/threonine-protein kinase pim-2 (Homo sapiens) (Q9P1W9 whole entry, looked up): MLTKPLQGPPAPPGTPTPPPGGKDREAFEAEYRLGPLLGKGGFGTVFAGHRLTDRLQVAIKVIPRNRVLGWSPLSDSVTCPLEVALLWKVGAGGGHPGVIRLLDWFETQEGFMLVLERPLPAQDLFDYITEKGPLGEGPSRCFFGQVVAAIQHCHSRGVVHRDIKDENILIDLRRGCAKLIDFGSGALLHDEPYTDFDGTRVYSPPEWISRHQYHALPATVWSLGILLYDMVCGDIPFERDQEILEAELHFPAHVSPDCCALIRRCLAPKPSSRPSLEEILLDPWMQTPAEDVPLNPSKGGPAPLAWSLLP
Sequence of Mast/stem cell growth factor receptor Kit (Homo sapiens) (P10721 whole entry): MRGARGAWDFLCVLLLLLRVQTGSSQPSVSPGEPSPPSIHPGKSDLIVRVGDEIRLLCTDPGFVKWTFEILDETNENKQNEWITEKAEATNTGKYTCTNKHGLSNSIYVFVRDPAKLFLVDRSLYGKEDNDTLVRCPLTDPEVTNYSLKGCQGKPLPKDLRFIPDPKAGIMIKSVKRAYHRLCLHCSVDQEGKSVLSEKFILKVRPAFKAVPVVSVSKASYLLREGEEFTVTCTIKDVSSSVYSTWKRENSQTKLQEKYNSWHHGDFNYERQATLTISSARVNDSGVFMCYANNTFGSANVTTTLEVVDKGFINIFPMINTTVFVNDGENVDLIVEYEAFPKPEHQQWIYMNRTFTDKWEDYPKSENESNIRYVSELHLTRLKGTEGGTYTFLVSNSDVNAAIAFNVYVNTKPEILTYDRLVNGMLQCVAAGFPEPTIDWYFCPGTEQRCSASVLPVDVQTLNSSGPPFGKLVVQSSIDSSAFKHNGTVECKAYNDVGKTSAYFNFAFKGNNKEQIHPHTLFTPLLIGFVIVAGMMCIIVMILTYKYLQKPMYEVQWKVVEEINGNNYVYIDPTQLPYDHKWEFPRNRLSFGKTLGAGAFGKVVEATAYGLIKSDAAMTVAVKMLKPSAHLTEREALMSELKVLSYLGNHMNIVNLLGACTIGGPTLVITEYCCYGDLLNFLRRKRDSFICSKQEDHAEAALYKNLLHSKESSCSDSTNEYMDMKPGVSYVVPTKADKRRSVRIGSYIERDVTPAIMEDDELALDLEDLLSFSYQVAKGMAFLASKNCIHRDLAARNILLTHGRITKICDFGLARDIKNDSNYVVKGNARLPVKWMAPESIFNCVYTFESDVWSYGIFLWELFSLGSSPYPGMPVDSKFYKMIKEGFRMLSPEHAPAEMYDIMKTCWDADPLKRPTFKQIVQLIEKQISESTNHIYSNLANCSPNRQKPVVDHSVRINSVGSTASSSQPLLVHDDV
Sequence of Epithelial discoidin domain-containing receptor 1 (Homo sapiens) (Q08345 whole entry, the tested form may be a part): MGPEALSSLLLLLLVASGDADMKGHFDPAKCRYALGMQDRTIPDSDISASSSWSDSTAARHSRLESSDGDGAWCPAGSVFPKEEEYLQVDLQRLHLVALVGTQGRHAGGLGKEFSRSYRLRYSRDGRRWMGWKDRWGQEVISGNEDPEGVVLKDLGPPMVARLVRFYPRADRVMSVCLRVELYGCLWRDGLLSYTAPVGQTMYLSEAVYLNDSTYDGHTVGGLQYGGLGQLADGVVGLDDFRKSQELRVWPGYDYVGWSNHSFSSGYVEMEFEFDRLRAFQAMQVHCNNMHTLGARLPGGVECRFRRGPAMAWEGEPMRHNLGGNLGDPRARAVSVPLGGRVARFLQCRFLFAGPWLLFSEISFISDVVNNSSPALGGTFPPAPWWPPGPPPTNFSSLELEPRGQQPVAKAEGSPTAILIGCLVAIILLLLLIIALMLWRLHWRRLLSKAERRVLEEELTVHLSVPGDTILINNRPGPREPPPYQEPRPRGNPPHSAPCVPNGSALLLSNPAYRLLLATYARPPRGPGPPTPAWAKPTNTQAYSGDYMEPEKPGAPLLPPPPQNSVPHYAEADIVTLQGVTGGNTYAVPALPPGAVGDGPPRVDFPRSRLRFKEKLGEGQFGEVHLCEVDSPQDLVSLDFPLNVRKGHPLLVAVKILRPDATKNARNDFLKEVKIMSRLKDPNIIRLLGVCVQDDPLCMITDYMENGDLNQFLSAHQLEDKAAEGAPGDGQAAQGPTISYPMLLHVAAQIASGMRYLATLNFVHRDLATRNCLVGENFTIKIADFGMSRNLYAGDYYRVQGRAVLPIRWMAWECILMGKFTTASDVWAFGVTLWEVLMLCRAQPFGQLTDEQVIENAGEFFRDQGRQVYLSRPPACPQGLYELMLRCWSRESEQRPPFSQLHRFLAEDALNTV
Sequence of Phosphatidylinositol 4,5-bisphosphate 3-kinase catalytic subunit alpha isoform (Homo sapiens), P42336 [M1043I] (P42336 whole entry M1043I, canonical isoform): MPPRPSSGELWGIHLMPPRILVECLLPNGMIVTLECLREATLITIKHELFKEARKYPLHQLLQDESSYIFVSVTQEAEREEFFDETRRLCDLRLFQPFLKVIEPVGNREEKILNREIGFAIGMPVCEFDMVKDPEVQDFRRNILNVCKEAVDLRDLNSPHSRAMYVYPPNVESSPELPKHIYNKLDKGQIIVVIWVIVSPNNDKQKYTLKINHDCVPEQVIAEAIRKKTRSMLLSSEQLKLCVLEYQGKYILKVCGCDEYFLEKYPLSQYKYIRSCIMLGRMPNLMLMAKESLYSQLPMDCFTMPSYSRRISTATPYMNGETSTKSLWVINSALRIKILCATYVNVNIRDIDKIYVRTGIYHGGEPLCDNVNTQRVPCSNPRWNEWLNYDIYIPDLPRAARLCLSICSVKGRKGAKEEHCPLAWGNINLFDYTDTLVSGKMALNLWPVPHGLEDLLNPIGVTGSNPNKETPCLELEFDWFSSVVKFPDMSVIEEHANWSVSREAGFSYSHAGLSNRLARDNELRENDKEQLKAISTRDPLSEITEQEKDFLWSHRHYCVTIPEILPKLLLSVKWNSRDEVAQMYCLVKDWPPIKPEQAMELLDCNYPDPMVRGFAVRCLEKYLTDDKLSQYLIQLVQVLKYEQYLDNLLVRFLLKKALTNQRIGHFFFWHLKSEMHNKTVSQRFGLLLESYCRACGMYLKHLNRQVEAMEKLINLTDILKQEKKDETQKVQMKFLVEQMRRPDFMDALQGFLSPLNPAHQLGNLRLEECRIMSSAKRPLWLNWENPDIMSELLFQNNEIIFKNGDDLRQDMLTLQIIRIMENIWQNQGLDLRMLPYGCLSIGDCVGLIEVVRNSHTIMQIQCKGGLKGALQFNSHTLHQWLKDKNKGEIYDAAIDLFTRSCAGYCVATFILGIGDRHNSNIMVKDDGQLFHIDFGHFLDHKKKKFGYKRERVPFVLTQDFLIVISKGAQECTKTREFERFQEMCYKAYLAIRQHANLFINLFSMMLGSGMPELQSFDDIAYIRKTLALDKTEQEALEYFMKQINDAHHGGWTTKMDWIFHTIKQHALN
Sequence of Receptor-interacting serine/threonine-protein kinase 2 (Homo sapiens) (O43353 whole entry): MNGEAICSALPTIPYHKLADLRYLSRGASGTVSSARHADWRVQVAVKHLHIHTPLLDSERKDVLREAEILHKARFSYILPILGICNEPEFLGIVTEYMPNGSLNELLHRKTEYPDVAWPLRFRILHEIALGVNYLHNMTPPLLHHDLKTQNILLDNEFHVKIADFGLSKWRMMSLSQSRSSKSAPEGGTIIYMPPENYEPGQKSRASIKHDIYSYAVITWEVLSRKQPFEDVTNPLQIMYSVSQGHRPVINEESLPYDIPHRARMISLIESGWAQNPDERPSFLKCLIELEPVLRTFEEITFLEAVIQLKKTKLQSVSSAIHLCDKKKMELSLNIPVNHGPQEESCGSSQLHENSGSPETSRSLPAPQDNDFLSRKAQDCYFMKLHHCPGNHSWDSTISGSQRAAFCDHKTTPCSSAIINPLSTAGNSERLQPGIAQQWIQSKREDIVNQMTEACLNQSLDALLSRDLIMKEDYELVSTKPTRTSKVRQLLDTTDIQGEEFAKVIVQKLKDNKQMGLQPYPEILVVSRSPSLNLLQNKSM
Sequence of Cyclin-dependent kinase 14 (Homo sapiens) (O94921 whole entry): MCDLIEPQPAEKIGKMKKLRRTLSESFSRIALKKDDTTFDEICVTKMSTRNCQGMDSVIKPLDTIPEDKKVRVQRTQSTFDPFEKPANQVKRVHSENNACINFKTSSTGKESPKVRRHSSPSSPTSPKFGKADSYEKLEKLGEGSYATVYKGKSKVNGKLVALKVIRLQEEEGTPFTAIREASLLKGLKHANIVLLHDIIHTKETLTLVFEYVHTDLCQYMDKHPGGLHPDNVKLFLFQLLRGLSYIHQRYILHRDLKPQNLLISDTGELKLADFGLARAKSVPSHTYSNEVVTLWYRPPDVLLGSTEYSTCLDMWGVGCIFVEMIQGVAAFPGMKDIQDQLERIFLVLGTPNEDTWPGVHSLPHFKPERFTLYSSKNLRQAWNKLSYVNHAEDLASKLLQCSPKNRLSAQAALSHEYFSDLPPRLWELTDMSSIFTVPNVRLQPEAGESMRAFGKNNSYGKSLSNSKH

SMILES: CSc1cccnc1N1CCN(Cc2nc3ccccc3[nH]2)CC1 [A-769]
- residual activity [1]: 100%
- residual activity [2]: 100%
- residual activity [3]: 100%
- residual activity [4]: 98%
- residual activity [5]: 80%
- residual activity [6]: 100%
- residual activity [7]: 100%
- residual activity [8]: 94%
- residual activity [9]: 62%
- residual activity [10]: 89%
- residual activity [11]: 100%
- residual activity [12]: 100%
- residual activity [13]: 93%
- residual activity [14]: 80%
- residual activity [15]: 100%
- residual activity [16]: 88%
- residual activity [17]: 100%
- residual activity [18]: 96%
- residual activity [19]: 100%
- residual activity [20]: 95%
- residual activity [21]: 45%
- residual activity [22]: 100%
- residual activity [23]: 100%
- residual activity [24]: 82%
- residual activity [25]: 87%
- residual activity [26]: 98%
- residual activity [27]: 100%
- residual activity [28]: 100%
- residual activity [29]: 100%
- residual activity [30]: 100%
- residual activity [31]: 100%
- residual activity [32]: 100%
- residual activity [33]: 87%
- residual activity [34]: 97%
- residual activity [35]: 77%
- residual activity [36]: 100%
- residual activity [37]: 100%
- residual activity [38]: 100%
- residual activity [39]: 59%
- residual activity [40]: 91%
- residual activity [41]: 100%
- residual activity [42]: 100%
- residual activity [43]: 87%
- residual activity [44]: 100%
- residual activity [45]: 95%

SMILES: c1ccc(N2CCN(Cc3nc4ccccc4[nH]3)CC2)nc1 [ABT-724]
- residual activity [1]: 100%
- residual activity [2]: 100%
- residual activity [3]: 100%
- residual activity [4]: 100%
- residual activity [5]: 100%
- residual activity [6]: 100%
- residual activity [7]: 100%
- residual activity [8]: 87%
- residual activity [9]: 100%
- residual activity [10]: 100%
- residual activity [11]: 100%
- residual activity [12]: 100%
- residual activity [13]: 90%
- residual activity [14]: 100%
- residual activity [15]: 91%
- residual activity [16]: 100%
- residual activity [17]: 90%
- residual activity [18]: 85%
- residual activity [19]: 100%
- residual activity [20]: 83%
- residual activity [21]: 100%
- residual activity [22]: 91%
- residual activity [23]: 72%
- residual activity [24]: 100%
- residual activity [25]: 97%
- residual activity [26]: 100%
- residual activity [27]: 100%
- residual activity [28]: 86%
- residual activity [29]: 91%
- residual activity [30]: 97%
- residual activity [31]: 100%
- residual activity [32]: 92%
- residual activity [33]: 100%
- residual activity [34]: 99%
- residual activity [35]: 100%
- residual activity [36]: 100%
- residual activity [37]: 100%
- residual activity [38]: 100%
- residual activity [39]: 100%
- residual activity [40]: 97%
- residual activity [41]: 100%
- residual activity [42]: 100%
- residual activity [43]: 87%
- residual activity [44]: 92%
- residual activity [45]: 100%
